Assay results from patent US20230416275A1, “MODULATORS OF CYSTIC FIBROSIS TRANSMEMBRANE CONDUCTANCE REGULATOR” (VERTEX PHARMACEUTICALS INCORPORATED, priority 2020, published 2023).

Target: T1, F508del in NIH 3T3 cells (Homo sapiens, UniProt P13569, DEL508-508)
T1 construct: expressed in transfected cells
Experiment: 3T3 assay: membrane potential optical assay for F508del correction
Format: cell-based, mouse
Details: for EC50: F508del NIH 3T3 cells, compound incubation 18-24 hours at 37° C., forskolin activation, read-out: 3T3 EC50; for Emax: NIH3T3, F508del NIH 3T3 cells, efficacy compared to lumacaftor in combination with acutely added 300 nM Ivacaftor, read-out: 3T3 Max Activity (%)
Source text: a. Membrane Potential Optical Methods for Assaying F508del Modulation Properties of Compounds
The assay utilizes fluorescent voltage sensing dyes to measure changes in membrane potential using a fluorescent plate reader (e.g., FLIPR III, Molecular Devices, Inc.) as a readout for increase in functional F508del in NIH 3T3 cells. The driving force for the response is the creation of a chloride ion gradient in conjunction with channel activation by a single liquid addition step after the cells have previously been treated with compounds and subsequently loaded with a voltage sensing dye.
b. Identification of Corrector Compounds
To identify correctors of F508del, a single-addition HTS assay format was developed. This HTS assay utilizes fluorescent voltage sensing dyes to measure changes in membrane potential on the FLIPR III as a measurement for increase in gating (conductance) of F508del in F508del NIH 3T3 cells. The F508del NIH 3T3 cell cultures were incubated with the corrector compounds at a range of concentrations for 18-24 hours at 37° C., and subsequently loaded with a redistribution dye. The driving force for the response is a Cl^− ion gradient in conjunction with channel activation with forskolin in a single liquid addition step using a fluorescent plate reader such as FLIPR III.
Bath Solution #1: (in mM) NaCl 160, KCl 4.5, CaCl2 2, MgCl2 1, HEPES 10, pH 7.4 with NaOH.
Chloride-free bath solution: Chloride salts in Bath Solution #1 (above) are substituted with gluconate salts.
NIH3T3 mouse fibroblasts stably expressing F508del are used for optical measurements of membrane potential. The cells are maintained at 37° C. in 5% CO2 and 90% humidity in Dulbecco's modified Eagle's medium supplemented with 2 mM glutamine, 10% fetal bovine serum, 1×NEAA, b-ME, 1× pen/strep, and 25 mM HEPES in 175 cm^2 culture flasks. For all optical assays, the cells were seeded at ˜20,000/well in 384-well Matrigel-coated plates. For the correction assays, the cells are cultured at 37° C. with and without compounds for 16-24 hours.

T1 sequence (P13569 with tags, fused parts or gaps DEL508-508): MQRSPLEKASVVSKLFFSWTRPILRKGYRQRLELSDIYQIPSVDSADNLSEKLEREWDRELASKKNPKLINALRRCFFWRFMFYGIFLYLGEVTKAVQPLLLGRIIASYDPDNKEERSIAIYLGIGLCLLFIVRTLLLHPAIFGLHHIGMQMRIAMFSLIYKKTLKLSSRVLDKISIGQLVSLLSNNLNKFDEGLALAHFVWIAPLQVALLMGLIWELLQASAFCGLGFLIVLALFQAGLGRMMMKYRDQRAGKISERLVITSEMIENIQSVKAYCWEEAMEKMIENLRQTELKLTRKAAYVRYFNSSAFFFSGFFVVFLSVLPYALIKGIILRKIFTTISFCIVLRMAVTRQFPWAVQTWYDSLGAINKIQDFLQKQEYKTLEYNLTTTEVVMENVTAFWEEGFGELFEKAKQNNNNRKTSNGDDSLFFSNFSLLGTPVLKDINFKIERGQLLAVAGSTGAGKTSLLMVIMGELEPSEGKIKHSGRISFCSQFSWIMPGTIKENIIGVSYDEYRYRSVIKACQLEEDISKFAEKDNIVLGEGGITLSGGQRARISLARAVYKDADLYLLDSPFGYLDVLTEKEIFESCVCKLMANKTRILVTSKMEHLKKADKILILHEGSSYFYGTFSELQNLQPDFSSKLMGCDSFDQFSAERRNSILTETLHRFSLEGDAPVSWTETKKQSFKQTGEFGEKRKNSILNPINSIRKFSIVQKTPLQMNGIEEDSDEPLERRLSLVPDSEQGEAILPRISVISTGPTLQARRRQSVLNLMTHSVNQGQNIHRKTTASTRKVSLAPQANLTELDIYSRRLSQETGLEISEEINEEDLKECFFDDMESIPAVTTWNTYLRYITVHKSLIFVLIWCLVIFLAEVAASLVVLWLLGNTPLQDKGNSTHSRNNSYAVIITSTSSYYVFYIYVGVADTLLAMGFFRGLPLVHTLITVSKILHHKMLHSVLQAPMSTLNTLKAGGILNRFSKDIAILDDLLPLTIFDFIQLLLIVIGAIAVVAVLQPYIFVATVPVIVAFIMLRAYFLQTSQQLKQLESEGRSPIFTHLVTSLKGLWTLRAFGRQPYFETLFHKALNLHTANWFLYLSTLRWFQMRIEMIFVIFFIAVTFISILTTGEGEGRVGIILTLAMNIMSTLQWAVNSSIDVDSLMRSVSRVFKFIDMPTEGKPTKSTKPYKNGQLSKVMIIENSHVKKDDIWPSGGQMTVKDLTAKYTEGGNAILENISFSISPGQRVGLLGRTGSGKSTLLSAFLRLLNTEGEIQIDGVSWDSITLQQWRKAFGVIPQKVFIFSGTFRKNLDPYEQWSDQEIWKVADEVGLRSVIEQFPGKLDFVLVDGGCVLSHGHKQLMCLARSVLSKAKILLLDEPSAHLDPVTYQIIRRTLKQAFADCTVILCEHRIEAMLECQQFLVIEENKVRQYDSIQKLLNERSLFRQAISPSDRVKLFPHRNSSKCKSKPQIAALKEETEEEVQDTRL

| SMILES | EC50 [µM] | Emax [%] |
| --- | --- | --- |
| Cc1cccc(C)c1-c1cc2nc(n1)NS(=O)(=O)c1cccc(c1)NC(=O)c1cccc(c1C)O2 (racemic) [Compound 59, 5-(2,6-Dimethylphenyl)-21-methyl-9,9-dioxo-2-oxa-9λ^6-thia-6,8,15,23-tetraazatetracyclo[15.3.1.13,7.110,14]tricosa-1(20),3,5,7(23),10(22),11,13,17(21),18-nonaen-16-one] | < 1 | > 60 |
| Cc1cccc(C)c1-c1cc2nc(n1)NS(=O)(=O)c1cccc(c1)NC(=O)[C@H]1C[C@@H](CN(C(=O)OC(C)(C)C)C1)O2 (single isomer, unassigned) [Compound 4] | < 1 | > 60 |
| Cc1cccc(C)c1-c1cc2nc(n1)NS(=O)(=O)c1cccc(c1)NC(=O)c1cccc(c1C)O2 (single isomer, unassigned) [Compound 60, (+)-5-(2,6-Dimethylphenyl)-21-methyl-9,9-dioxo-2-oxa-9λ^6-thia-6,8,15,23-tetraazatetracyclo[15.3.1.13,7.110,14]tricosa-1(20),3,5,7(23),10(22),11,13,17(21),18-nonaen-16-one] | < 1 | > 60 |
| Cc1cccc(C)c1-c1cc2nc(n1)NS(=O)(=O)c1cccc(c1)NC(=O)c1cccc(c1C)O2 (single isomer, unassigned) [Compound 61, (−)-5-(2,6-dimethylphenyl)-21-methyl-9,9-dioxo-2-oxa-9λ^6-thia-6,8,15,23-tetraazatetracyclo[15.3.1.13,7.110,14]tricosa-1(20),3,5,7(23),10(22),11,13,17(21),18-nonaen-16-one] | < 1 | – |
| Cc1cccc(C)c1-c1cc2nc(n1)NS(=O)(=O)c1cccc(c1)NC(=O)c1cc(ccc1N1CCCCC1)O2 [Compound 56, 5-(2,6-Dimethylphenyl)-9,9-dioxo-18-(1-piperidyl)-2-oxa-9λ^6-thia-6,8,15,23-tetraazatetracyclo[15.3.1.13,7.110,14]tricosa-1(21),3,5,7(23),10(22),11,13,17,19-nonaen-16-one] | < 1 | > 60 |
| CC1(C)CCCCC1c1cc2nc(n1)NS(=O)(=O)c1cccc(c1)NC(=O)c1cccc(c1)O2 (stereo not shown) [Compound 75, 5-(2,2-Dimethylcyclohexyl)-9,9-dioxo-2-oxa-9λ^6-thia-6,8,15,23-tetraazatetracyclo[15.3.1.13,7.110,14]tricosa-1(20),3,5,7(23),10(22),11,13,17(21),18-nonaen-16-one] | < 1 | > 60 |
| O=C1Nc2cccc(c2)S(=O)(=O)Nc2nc(cc(-c3ccccc3)n2)Oc2cccc1c2 [Compound 82] | 1 to 3 | > 60 |
| Nc1ccccc1-c1cc2nc(n1)NS(=O)(=O)c1cccc(c1)NC(=O)c1cccc(c1)O2 [Compound 83] | 3 to 30 | > 60 |
| O=C1Nc2cccc(c2)S(=O)(=O)Nc2nc(cc(-c3ccccc3O)n2)Oc2cccc1c2 [Compound 84] | 3 to 30 | > 60 |
| Cc1nn(C)c(C)c1-c1cc2nc(n1)NS(=O)(=O)c1cccc(c1)NC(=O)c1cccc(c1)O2 [Compound 85] | – | < 30 |
| O=C1Nc2cccc(c2)S(=O)(=O)Nc2nc(cc(-c3ccco3)n2)Oc2cccc1c2 [Compound 86] | 3 to 30 | > 60 |
| COc1ccccc1-c1cc2nc(n1)NS(=O)(=O)c1cccc(c1)NC(=O)c1cccc(c1)O2 [Compound 87] | 1 to 3 | > 60 |
| Cc1cccc(C)c1-c1cc2nc(n1)NS(=O)(=O)c1cccc(c1)NC(=O)c1cccc(c1)CCO2 [Compound 94] | 1 to 3 | 30 to 60 |
| Cc1cccc(C)c1-c1cc2nc(n1)NS(=O)(=O)c1cccc(c1)NC(=O)C(NC(=O)OC(C)(C)C)CCO2 (stereo not shown) [Compound 95] | < 1 | > 60 |
| Cc1cccc(C)c1-c1cc2nc(n1)NS(=O)(=O)c1cccc(c1)NC(=O)C(N)CCO2 (stereo not shown) [Compound 96] | 1 to 3 | > 60 |
| Cc1cccc(C)c1-c1cc2nc(n1)NS(=O)(=O)c1cccc(c1)NC(=O)CCCCCO2 [Compound 97] | < 1 | > 60 |
| Cc1cccc(C)c1-c1cc2nc(n1)NS(=O)(=O)c1cccc(c1)NC(=O)C1CC(CN1C(=O)OC(C)(C)C)O2 (stereo not shown) [Compound 98] | 1 to 3 | > 60 |
| Cc1cccc(C)c1-c1cc2nc(n1)NS(=O)(=O)c1cccc(c1)NC(=O)c1cc(cc(N3CCNCC3)c1)O2 [Compound 99] | 3 to 30 | 30 to 60 |
| Cc1cccc(C)c1-c1cc2nc(n1)NS(=O)(=O)c1cccc(c1)NC(=O)c1cc(ccc1N1CCC(O)CC1)O2 [Compound 100] | 3 to 30 | > 60 |
| Cc1cccc(C)c1-c1cc2nc(n1)NS(=O)(=O)c1cccc(c1)NC(=O)c1cc(ccc1NC1CCCC(N)C1)O2 (stereo not shown) [Compound 101] | 3 to 30 | > 60 |
| CNC1CCCCC1N(C)c1ccc2cc1C(=O)Nc1cccc(c1)S(=O)(=O)Nc1nc(cc(-c3c(C)cccc3C)n1)O2 (stereo not shown) [Compound 102] | – | 30 to 60 |
| Cc1cccc(C)c1-c1cc2nc(n1)NS(=O)(=O)c1cccc(c1)NC(=O)c1cc(ccc1NC1CCCCC1N)O2 (stereo not shown) [Compound 103] | 1 to 3 | > 60 |
| CNCCN(C)c1ccc2cc1C(=O)Nc1cccc(c1)S(=O)(=O)Nc1nc(cc(-c3c(C)cccc3C)n1)O2 [Compound 104] | 3 to 30 | 30 to 60 |
| Cc1cccc(C)c1-c1cc2nc(n1)NS(=O)(=O)c1cccc(c1)NC(=O)c1cc(ccc1NCCN)O2 [Compound 105] | 1 to 3 | > 60 |
| Cc1cccc(C)c1-c1cc2nc(n1)NS(=O)(=O)c1cccc(c1)NC(=O)c1cc(ccc1N1CCNCC1)O2 [Compound 106] | 3 to 30 | > 60 |
| Cc1ccccc1-c1cc2nc(n1)NS(=O)(=O)c1cccc(c1)N(C)C(=O)c1ccc(cc1)O2 [Compound 113] | – | < 30 |
| Cc1ccccc1-c1cc2nc(n1)NS(=O)(=O)c1cccc(c1)N(C)C(=O)c1cccc(c1)O2 [Compound 115] | 3 to 30 | > 60 |
| Cc1cccc(C)c1-c1cc2nc(n1)NS(=O)(=O)c1cccc(c1)NC(=O)c1cccc(c1Cl)O2 [Compound 116] | < 1 | > 60 |
